# Source: ChEMBL document CHEMBL5120927, “LEGO-Lipophosphonoxins: A Novel Approach in Designing Membrane Targeting Antimicrobials” (J Med Chem, 2022)
# Tested on: Staphylococcus aureus
# Assay: Antibacterial activity against wild type methicillin resistant Staphylococcus aureus 5017/C assessed as reduction in microbial growth incubated for 24 hrs by microdilution assay
# Assay type: functional
# Settings: not given
row,SMILES,MIC
1,CC1(C)S[C@@H]2[C@H](NC(=O)[C@H](N)c3ccccc3)C(=O)N2[C@H]1C(=O)O [AMPICILLIN],> 16 µg/mL

# Tested on: Staphylococcus aureus
# Assay: Antibacterial activity against wild type Staphylococcus aureus 4557/A assessed as reduction in microbial growth incubated for 24 hrs by microdilution assay
# Assay type: functional
# Settings: not given
row,SMILES,MIC
1,CC1(C)S[C@@H]2[C@H](NC(=O)[C@H](N)c3ccccc3)C(=O)N2[C@H]1C(=O)O [AMPICILLIN],0.5 µg/mL

# Tested on: Staphylococcus aureus
# Assay: Antibacterial activity against […] Staphylococcus aureus 4463/A assessed as reduction in microbial growth incubated for 24 hrs by microdilution assay
# Assay type: functional
# Settings: not given
row,SMILES,MIC
1,CC1(C)S[C@@H]2[C@H](NC(=O)[C@H](N)c3ccccc3)C(=O)N2[C@H]1C(=O)O [AMPICILLIN],0.5 µg/mL

# Tested on: Staphylococcus aureus
# Assay: Antibacterial activity against wild type Staphylococcus aureus 4904/C assessed as reduction in microbial growth incubated for 24 hrs by microdilution assay
# Assay type: functional
# Settings: not given
row,SMILES,MIC
1,CC1(C)S[C@@H]2[C@H](NC(=O)[C@H](N)c3ccccc3)C(=O)N2[C@H]1C(=O)O [AMPICILLIN],0.5 µg/mL

# Tested on: Staphylococcus aureus
# Assay: Antibacterial activity against wild type Staphylococcus aureus 4883/C assessed as reduction in microbial growth incubated for 24 hrs by microdilution assay
# Assay type: functional
# Settings: not given
row,SMILES,MIC
1,CC1(C)S[C@@H]2[C@H](NC(=O)[C@H](N)c3ccccc3)C(=O)N2[C@H]1C(=O)O [AMPICILLIN],0.5 µg/mL

# Tested on: Staphylococcus aureus
# Assay: Antibacterial activity against […] Staphylococcus aureus 4460/A assessed as reduction in microbial growth incubated for 24 hrs by microdilution assay
# Assay type: functional
# Settings: not given
row,SMILES,MIC
1,CC1(C)S[C@@H]2[C@H](NC(=O)[C@H](N)c3ccccc3)C(=O)N2[C@H]1C(=O)O [AMPICILLIN],1 µg/mL

# Tested on: Staphylococcus aureus
# Assay: Antibacterial activity against wild type Staphylococcus aureus 4482/A assessed as reduction in microbial growth incubated for 24 hrs by microdilution assay
# Assay type: functional
# Settings: not given
row,SMILES,MIC
1,CC1(C)S[C@@H]2[C@H](NC(=O)[C@H](N)c3ccccc3)C(=O)N2[C@H]1C(=O)O [AMPICILLIN],1 µg/mL

# Tested on: Staphylococcus aureus
# Assay: Antibacterial activity against wild type Staphylococcus aureus 4566/A assessed as reduction in microbial growth incubated for 24 hrs by microdilution assay
# Assay type: functional
# Settings: not given
row,SMILES,MIC
1,CC1(C)S[C@@H]2[C@H](NC(=O)[C@H](N)c3ccccc3)C(=O)N2[C@H]1C(=O)O [AMPICILLIN],0.5 µg/mL

# Tested on: Staphylococcus aureus
# Assay: Antibacterial activity against wild type Staphylococcus aureus 4504/A assessed as reduction in microbial growth incubated for 24 hrs by microdilution assay
# Assay type: functional
# Settings: not given
row,SMILES,MIC
1,CC1(C)S[C@@H]2[C@H](NC(=O)[C@H](N)c3ccccc3)C(=O)N2[C@H]1C(=O)O [AMPICILLIN],0.5 µg/mL

# Tested on: Staphylococcus aureus
# Assay: Antibacterial activity against wild type Staphylococcus aureus 4740/B assessed as reduction in microbial growth incubated for 24 hrs by microdilution assay
# Assay type: functional
# Settings: not given
row,SMILES,MIC
1,CC1(C)S[C@@H]2[C@H](NC(=O)[C@H](N)c3ccccc3)C(=O)N2[C@H]1C(=O)O [AMPICILLIN],0.5 µg/mL

# Tested on: Staphylococcus aureus
# Assay: Antibacterial activity against wild type Staphylococcus aureus 4717/B assessed as reduction in microbial growth incubated for 24 hrs by microdilution assay
# Assay type: functional
# Settings: not given
row,SMILES,MIC
1,CC1(C)S[C@@H]2[C@H](NC(=O)[C@H](N)c3ccccc3)C(=O)N2[C@H]1C(=O)O [AMPICILLIN],0.5 µg/mL

# Tested on: Staphylococcus aureus
# Assay: Antibacterial activity against wild type Staphylococcus aureus 4738/B assessed as reduction in microbial growth incubated for 24 hrs by microdilution assay
# Assay type: functional
# Settings: not given
row,SMILES,MIC
1,CC1(C)S[C@@H]2[C@H](NC(=O)[C@H](N)c3ccccc3)C(=O)N2[C@H]1C(=O)O [AMPICILLIN],0.5 µg/mL

# Tested on: Staphylococcus aureus
# Assay: Antibacterial activity against […] Staphylococcus aureus 4461/A assessed as reduction in microbial growth incubated for 24 hrs by microdilution assay
# Assay type: functional
# Settings: not given
row,SMILES,MIC
1,CC1(C)S[C@@H]2[C@H](NC(=O)[C@H](N)c3ccccc3)C(=O)N2[C@H]1C(=O)O [AMPICILLIN],1 µg/mL

# Tested on: Staphylococcus aureus
# Assay: Antibacterial activity against wild type Staphylococcus aureus 4679/B assessed as reduction in microbial growth incubated for 24 hrs by microdilution assay
# Assay type: functional
# Settings: not given
row,SMILES,MIC
1,CC1(C)S[C@@H]2[C@H](NC(=O)[C@H](N)c3ccccc3)C(=O)N2[C@H]1C(=O)O [AMPICILLIN],1 µg/mL

# Tested on: Staphylococcus aureus
# Assay: Antibacterial activity against wild type Staphylococcus aureus 4502/A assessed as reduction in microbial growth incubated for 24 hrs by microdilution assay
# Assay type: functional
# Settings: not given
row,SMILES,MIC
1,CC1(C)S[C@@H]2[C@H](NC(=O)[C@H](N)c3ccccc3)C(=O)N2[C@H]1C(=O)O [AMPICILLIN],0.5 µg/mL

# Tested on: Staphylococcus aureus
# Assay: Antibacterial activity against wild type Staphylococcus aureus 4515/A assessed as reduction in microbial growth incubated for 24 hrs by microdilution assay
# Assay type: functional
# Settings: not given
row,SMILES,MIC
1,CC1(C)S[C@@H]2[C@H](NC(=O)[C@H](N)c3ccccc3)C(=O)N2[C@H]1C(=O)O [AMPICILLIN],0.5 µg/mL

# Tested on: Staphylococcus aureus
# Assay: Antibacterial activity against wild type Staphylococcus aureus 5079/C assessed as reduction in microbial growth incubated for 24 hrs by microdilution assay
# Assay type: functional
# Settings: not given
row,SMILES,MIC
1,CC1(C)S[C@@H]2[C@H](NC(=O)[C@H](N)c3ccccc3)C(=O)N2[C@H]1C(=O)O [AMPICILLIN],0.5 µg/mL

# Tested on: Staphylococcus aureus
# Assay: Antibacterial activity against wild type Staphylococcus aureus 4788/B assessed as reduction in microbial growth incubated for 24 hrs by microdilution assay
# Assay type: functional
# Settings: not given
row,SMILES,MIC
1,CC1(C)S[C@@H]2[C@H](NC(=O)[C@H](N)c3ccccc3)C(=O)N2[C@H]1C(=O)O [AMPICILLIN],0.5 µg/mL

# Tested on: Staphylococcus aureus
# Assay: Antibacterial activity against wild type Staphylococcus aureus 78/CF assessed as reduction in microbial growth incubated for 24 hrs by microdilution assay
# Assay type: functional
# Settings: not given
row,SMILES,MIC
1,CC1(C)S[C@@H]2[C@H](NC(=O)[C@H](N)c3ccccc3)C(=O)N2[C@H]1C(=O)O [AMPICILLIN],0.5 µg/mL

# Tested on: Staphylococcus aureus
# Assay: Antibacterial activity against wild type Staphylococcus aureus 77/CF assessed as reduction in microbial growth incubated for 24 hrs by microdilution assay
# Assay type: functional
# Settings: not given
row,SMILES,MIC
1,CC1(C)S[C@@H]2[C@H](NC(=O)[C@H](N)c3ccccc3)C(=O)N2[C@H]1C(=O)O [AMPICILLIN],0.5 µg/mL

# Tested on: Staphylococcus aureus
# Assay: microbe, parasite or virus in culture
# Settings: 4862/C, 24 h
# Description: Antibacterial activity against wild type Staphylococcus aureus 4862/C assessed as reduction in microbial growth incubated for 24 hrs by microdilution assay
row,SMILES,MIC
1,CC1(C)S[C@@H]2[C@H](NC(=O)[C@H](N)c3ccccc3)C(=O)N2[C@H]1C(=O)O [AMPICILLIN],1 µg/mL

# Tested on: Staphylococcus aureus
# Assay: microbe, parasite or virus in culture
# Settings: 4880/C, 24 h
# Description: Antibacterial activity against wild type Staphylococcus aureus 4880/C assessed as reduction in microbial growth incubated for 24 hrs by microdilution assay
row,SMILES,MIC
1,CC1(C)S[C@@H]2[C@H](NC(=O)[C@H](N)c3ccccc3)C(=O)N2[C@H]1C(=O)O [AMPICILLIN],0.5 µg/mL
